# Results as given in US20150224190A1, “Combination of a phosphoinositide 3-kinase inhibitor and an inhibitor of the IL-8/CXCR interaction” (priority 2012, published 2015).
# Test system: IL-8
# Test: IL-8 levels in dissected primary triple-negative breast tumors or plasma of mice (ELISA)
# Assay type: in vivo, human
# Details: day 3 of treatment with 30 mg/kg BEZ235 vs vehicle
# Method: FIG. 5. BEZ235 treatment activates JAK2/STAT5 and IL-8 secretion in human primary triple-negative breast tumors Bar graphs showing IL-8 levels measured by ELISA in the dissected tumors from or in the plasma of mice at day 3 of treatment with 30 mg/kg BEZ235 or vehicle (VHC). Results represent means±SEM (n=3-4, *P<0.05). For assessing pJAK2 levels, an ELISA assay ([…]/1008, Invitrogen) was applied because of cross-reactivity of all pJAK2 antibodies tested. Interleukin-8 levels in RIPA lysates, cell culture supernatants and mouse tail vein blood plasma were measured by ELISA, as well (Biolegend). Cytokine arrays on cell culture supernatants and mouse tumor lysates were performed according the manufacture's protocol (R & D systems, Human and Mouse cytokine array panel A). […] Tumors were measured every 3 to 4 days with vernier calipers, and tumor volumes were calculated by the formula 0.5×(larger diameter)×(smaller diameter)^2. End point tumor sizes were analyzed for synergism using the formula AB/C<A/C×B/C, where C=tumor volume VHC, A=tumor volume compound 1, B=tumor volume compound 2, AB=tumor volume combination (Clarke, 1997).
smiles,measurement,value
"Cn1c(=O)n(-c2ccc(C(C)(C)C#N)cc2)c2c3cc(-c4cnc5ccccc5c4)ccc3ncc21 [COMPOUND A, 2-methyl-2-[4-(3-methyl-2-oxo-8-quinolin-3-yl-2,3-dihydro-imidazo[4,5-c]quinolin-1-yl)-phenyl]-propionitrile]",IL-8 secretion (IL-8 levels in tumors or plasma),activates
